Data reported in patent US5100907A, “Hydantoin esters” (Lonza, Inc., priority 1990, dated 1992).
Where two headings read alike, the source gives them in different places.

How the values were obtained:
Type in all cases: physicochemical
[1] = Physical properties of methylolated MHEDMH esters (I): viscosity; settings: at 25° C.
[2] = Total available formaldehyde (TF) and free formaldehyde (FF) levels of esters (I); settings: for Calculated TF / Determined FF / Ratio FF/TF: 1% active concentration in water; for FF (free formaldehyde) / TF (total available formaldehyde): neat ester, Table 3; for FF/TF ratio: water
Excerpt: Thus, whether the formaldehyde content is chemically bonded to the hydantoin moiety or is free formaldehyde (FF) in solution, e.g., in water as formaldehyde or methylene glycol [CH2 (OH)2 ], it remains available for biocidal action. Due to this direct relation, the weight percent TF in a given preparation of the ester (I), e.g. a cosmetic formulation, can be predicted accurately, regardless of the level of dilution.

[3] = Surface tension tests (cmc, Gibbs' Free Energy of Micellation); settings: for ΔG°cmc (Gibbs' Free Energy of Micellation): calculated from cmc by Eq. 1, T=298° K.; for cmc (critical micelle concentration): ester/water solution
Method: Surface tension tests were conducted as to the relationship between the fatty acid aliphatic chain length, i.e. number of carbon atoms, in the esters (I), and their performance as surfactants. The length of the hydrophobic chain of a molecule is considered the major contributing factor to the critical micelle concentration (cmc) value of a surfactant. This value is obtained from surface tension measurement data. The lower the cmc, the more readily the material will form micelles.
The Gibbs' Free Energy of Micellation (ΔG°cmc) and the ΔG°cmc per --CH2 -- can be determined if the cmc is known.
The ΔG°cmc is a calculated value obtained by Equation 1.
ΔG°cmc =2.303RT(log cmc-log[water]) (Eq. 1)
The ΔG°cmc per --CH2 -- value is obtained from the slope of the straight line curve formed from a plot of ΔG°cmc versus the number of carbon atoms in the lipophilic chain.
The cmc values were based on surface tension tests conducted with a tensiometer (Cenco-DuNoug Precision Model #70535, direct reading model) to determine the upward surface tension at the liquid-air surface of the test ester/water solution. The methods used to calibrate the tensiometer, calculate the "correction factor" (used to correct for the difference between the apparent and true surface tension), and collect data, were conducted as described in the manual for the instrument. Sodium lauryl sulfate (SLS) and distilled water were used as reference samples.
On completing data collection, plots of the surface tension (dynes) versus -log of the concentration (mols/liter) were prepared, using only the "corrected" surface tension value, obtained by applying the noted "correction factor" in each case. The […] was found by multiplying the "apparent" surface tension by a calculated correction factor.
The critical micelle concentration (cmc) for each sample was determined by locating the point in the curve where the surface tension first begins to level off, per a known procedure.

[4] = HLB determination (weighted average method)
Excerpt: Hydrophilic-Lipophilic Balance or HLB is a means of associating the hydrophilic and lipophilic characteristics between two surfactants. A "weighted average" method was used to determine the HLB of the esters (I), and by comparison of the precursor ester (Ia), in which two emulsifiers of known HLB values along with the test ester were incorporated in a mixture of mineral oil and water. Evaluation and HLB determination of each of a series of prepared emulsion samples were effected by visual inspection.
The HLB of the mixture "m" is calculated from the sum of the HLB contributions of each surfactant, "a", "b", "c", per Equation 2 which describes a system of oil, water, and three surfactants.
Given that [HLB]m, [HLB]a, and [HLB]b, are known, and the ideal amount of "a", "b", and "c" to prepare a perfect emulsion has been determined, then by rearrangement of Eq. 2, the HLB of "c" can be calculated by Equation 3.
To obtain the HLB of the test ester as surfactant "c", a series of formulations was prepared in which the known surfactant sorbitan monostearate (SMS) as "a" and the known surfactant POE 20 sorbitan monostearate (POE 20 SMS) as "b" were varied in amount (wt. %) relative to each other at a constant amount (1 wt. %) of "c", until an optimum emulsion was obtained. Different combinations of "a" and "b" were used to vary the HLB of "c", for emulsifying a 40:56 (wt. %) mixture of paraffin oil and distilled water (totaling 96 wt. %).
To prepare the emulsions, surfactants "a", "b", and "c", and the paraffin oil were combined in a 150 ml beaker and heated slowly with agitation to 70°-80° C. The value of "X" in each formulation was predetermined by rearranging Eq. 3 to solve for X, and then inserting into the equation various [HLB]c values for the test ester (i.e., 2, 3, 4, 5, 6 . . . ). The [HLB]c values chosen reflected a range that would likely contain the actual HLB of the test ester. Hot distilled water (70°-80° C.) was then slowly added with agitation. The total weight of all these reagents was 100 grams. The resulting emulsion was allowed to cool, with continued agitation, until the temperature dropped below 30° C.
A series of emulsions for each test was prepared, one at a time, and then examined as a set. Each sample within the series was evaluated and graded according to the quality of the emulsion by visual examination of droplet size.

Emulsion stability tests = settings: for Classification of Emulsion: 2% ester, 7% myristyl propionate, 91% water
Method: Emulsion stability tests were performed on the esters (I), and for comparison on the precursor esters (Ia), to determine the extent to which each stabilized a standardized solution of water and an oil, using a common procedure consisting of homogenizing a mixture containing the test ester (2%), myristyl propionate (7%), and water (91%). While two emulsifiers are normally used to prepare a cosmetic formulation, e.g. one with a high HLB and the other with a low HLB, the test method herein using only one emulsifier, i.e. the test ester, is fully indicative of the emulsifying attributes of these esters.
The tests were performed with emulsions (500 g), prepared by combining the test ester (10.0 g), myristyl propionate (35 g), and distilled water (455 g) in a container and homogenizing the contents for one minute, via a Kika-Werk Ultra-Turrax S D-45 homogenizer. The emulsions were poured into a one pound flint jar, capped, and periodically examined over a 55 day period.

[5] = Dispersion stability tests
Method: The dispersion stability tests were performed on the esters (I) to determine the extent each was able to disperse itself in an aqueous medium.
The dispersions were prepared by homogenizing a mixture of the test ester and water, after which repeated examination of the sample was effected for a period of 55 days. This test method is fully indicative of the dispersibility of these esters (I).
The dispersion tests were performed with the esters at 0.5% and 5.0% active levels in water, prepared by combining the test ester with distilled water, and homogenizing the mixture for one to three minutes, via a Kika-Werk Ultra-Turrax S D-45 homogenizer. The dispersions were poured into an eight ounce flint jar, capped, and periodically examined over a 55 day period.

[6] = Solubilities of esters in typical solvents / appearance of samples in water; settings: for Solubility in isopropyl alcohol / Solubility in mineral oil / solubility: 25° C.; for solubility: water
[7] = grams, legend per 100 g Solvent

Compound	Viscosity [1]	Calculated TF [2] [Wt. %]	Determined FF [2] [Wt. %]	FF (free formaldehyde) [2] [Wt. %]	TF (total available formaldehyde) [2] [Wt. %]	ΔG°cmc (Gibbs' Free Energy of Micellation) [3] [kcal/mol]	cmc (critical micelle concentration) [3]	Average HLB [4]	HLB Range [4]	emulsion quality, decreasing order of rank (Emulsion stability tests)	dispersion quality, decreasing order of rank [5]	Ratio FF/TF [2]	Solubility in isopropyl alcohol [6]	Classification of Emulsion (Emulsion stability tests; 2 Hours after preparation)	Classification of Dispersion ([5]; 0.5% active in water, 3 Days)	Classification of Dispersion ([5]; 0.5% active in water, 13 Days)	Classification of Dispersion ([5]; 0.5% active in water, 55 Days)	Classification of Dispersion ([5]; 5.0% active in water, 3 Days)	Classification of Dispersion ([5]; 5.0% active in water, 13 Days)	Classification of Dispersion ([5]; 5.0% active in water, 55 Days)	other results
2-(3-hydroxymethyl-5,5-dimethyl-1,3-diazacyclopentane-2,4-dion-1-yl)-ethylester of isostearic acid [Isostearic Methylolated Ester]	957 cts	0.062	0.0082	0.2	6.2	-7.13	3.0 × 10^-4 mol dm^-3	15.0	14-16	cocoate, laurate>oleate,isostearate>stearate>C8/10 ester>acetate	isostearate>oleate>cocoate>laurate>C8/10ester>>stearate>acetate										surface active properties [3]: particularly favorable surface active properties
CC(=O)OCCN1C(=O)N(CO)C(=O)C1(C)C [Acetic Methylolated Ester, 2-(3-hydroxymethyl-5,5-dimethyl-1,3-diazacyclopentane-2,4-dion-1-yl)-ethylester of acetic acid]	4,384 cts	0.123	0.0199	0.6	12.3	-3.896	7.24 × 10^-3 mol dm^-3	19.0	19-20	cocoate, laurate>oleate,isostearate>stearate>C8/10 ester>acetate	isostearate>oleate>cocoate>laurate>C8/10ester>>stearate>acetate	0.162	S (>10 g/100 g Solvent)	2-Phase	Dissolved	Dissolved	Dissolved	Dissolved	Dissolved	Dissolved	FF/TF ratio ([2]; concentration 0.1%): 0.25; FF/TF ratio ([2]; concentration 1%): 0.20; FF/TF ratio ([2]; concentration levels >5%): about 0.15%; Solubility in mineral oil [6, 7]: 3 g; solubility [6]: > 100 mg/mL; Average HLB ([4]; listed as acetate (I)): 19; ability to stabilize emulsions (Emulsion stability tests): generally unable to stabilize an emulsion for more than two hours; Classification of Emulsion (Emulsion stability tests; 7 Days after preparation): 2-Phase; Classification of Emulsion (Emulsion stability tests; 22 Days after preparation): 2-Phase; Classification of Emulsion (Emulsion stability tests; 55 Days after preparation): 2-Phase; Classification of Dispersion ([5]; 0.5% active in water, 2 Hours): Dissolved; Classification of Dispersion ([5]; 5.0% active in water, 2 Hours): Dissolved
CCCCCCCCCCCCCCCCCC(=O)OCCN1C(=O)N(CO)C(=O)C1(C)C [Stearic Methylolated Ester, 2-(3-hydroxymethyl-5,5-dimethyl-1,3-diazacyclopentane-2,4-dion-1-yl)-ethylester of stearic acid]		0.064	0.0066	0.2	6.4	-5.277	7.0 × 10^-3 mol dm^-3	7.0	6-8	cocoate, laurate>oleate,isostearate>stearate>C8/10 ester>acetate	isostearate>oleate>cocoate>laurate>C8/10ester>>stearate>acetate	0.103	S (>10 g/100 g Solvent)	Good/OK	2-Phase	2-Phase	2-Phase	2-Phase	2-Phase	2-Phase	water solubility relative to the other esters [6]: far less soluble in water than the other such esters; Solubility in mineral oil [6]: S (>10 g/100 g Solvent); solubility [6, 7]: < 10 mg/mL; Average HLB ([4]; listed as stearate (I)): 7
